Measured values: patent US7700615B2, “Cell migration inhibiting compositions and methods and compositions for treating cancer” (Avolix Pharmaceuticals, Inc., priority 2002, dated 2010)

Columns and labels:
[1] = system: MDA-MB-231 breast cancer cells; assay: scid mouse human breast tumor model (tumor growth, survival); format: in vivo, scid mice
Experimental: Measuring the synergy of a combination of a chemical and a chemotherapeutic agent may also be performed by evaluating the growth inhibitory effects of a chemotherapeutic agent and a cell migration inhibitor in a severe combined immunodeficient (scid) mouse human tumor model. Such measurements include screening mice for immunoglobulin (Ig) production by an enzyme-linked immunosorbent assay (ELISA). A number of mice are injected with cancer cells in saline using a subcutaneous (SC) injection. Mice with established tumors are selected and stratified according to groups including: a control group, a group treated with a chemotherapeutic agent alone, a group treated with a cell migration inhibitor alone, and one or more groups treated with various combinations of the chemotherapeutic agent and the cell migration inhibitor. The groups designated to be treated with at least the chemotherapeutic agent are injected with the chemotherapeutic agent or the chemotherapeutic agent diluent by intraperitoneal (IP, within abdominal cavity) injection on the first day of treatment. […] Tumor growth may be measured about twice a week throughout the experiment, and the tumor volume may be estimated using the following formula: [(width)^2×length]/2. […]
The scid mouse human breast tumor model was used to evaluated cancer cells of the cell line MDA-MB-231 treated with various compositions. […]

[2] = system: lung cancer cell line MV522; assay: Cell migration inhibition of lung cancer cells; format: cell-based; settings: compared with untreated control sample
Experimental: (§1) The guided cell sedimentation apparatus may be used to deposit cells onto a substrate at predetermined locations. A manifold and a substrate as described above may be stored in autoclave bags and steam autoclaved for about 1 hour to sterilize the manifold. The manifold may then be stored at about 4° C. until testing is to be performed. FIG. 3 illustrates a top schematic view of substrate 14. Prior to deposition, the surface of substrate 14 onto which the cells will be deposited is treated according to the experiment to be performed. For example, about 20 μl of a surface coating may be added to each well and incubated for about 1 hour at about 37° C. Just prior to deposition of the cells, Teflon-defined wells 24 on the substrate are hydrated in a culture media appropriate for the cells under study. Approximately 50 μl of culture media is deposited onto each well. […]
(§2) Cell migration may be monitored over time by monitoring the location of individual cells over time or measuring the radius of a circle surrounding the cells over time. […] The peripheral cells are easily detected because the cells can be deposited as a confluent monolayer within a predetermined area. […] Alternatively, designations such as numbers can be assigned to individual cells such that cells may be counted or characterized within the deposited sample of cells. […]

[3] = system: breast cancer cell line MDA-MB-231; assay: Cell migration rate dose response, breast cancer cells; format: cell-based, human; settings: concentration of 2.00 μM
Experimental: as §1, §2

[4] = system: normal fibroblasts; assay: Cell migration of normal fibroblasts; format: cell-based; settings: compared with control sample of untreated cells
Experimental: (§3) The guided cell sedimentation apparatus may be used to deposit cells onto a substrate at predetermined locations. A manifold and a substrate as described above may be stored in autoclave bags and steam autoclaved for about 1 hour to sterilize the manifold. The manifold may then be stored at about 4° C. until testing is to be performed. FIG. 3 illustrates a top schematic view of substrate 14. Prior to deposition, the surface of substrate 14 onto which the cells will be deposited is treated according to the experiment to be performed. For example, about 20 μl of a surface coating may be added to each well and incubated for about 1 hour at about 37° C. Just prior to deposition of the cells, Teflon-defined wells 24 on the substrate are hydrated in a culture media appropriate for the cells under study. Approximately 50 μl of culture media is deposited onto each well. […] A small aliquot of the culture media (i.e., about 1 μl) is aspirated from each channel of the manifold to eliminate air bubbles within the channels.
The cells are harvested from a culture according to any method known in the art. The cell concentration is adjusted to about 2000 cells/μl. An appropriate cell concentration may vary depending on the cell type. The cells are deposited into each channel in a volume of about 1 μl. The number of cells deposited onto the substrate varies depending upon the physical characteristics of the cells under study. For example, about 500 to about 3000 cells are deposited in each location. The manifold, substrate, and cells should stand undisturbed for a period of time of, for example, about 30 minutes. During the time, the cells will sediment. Sedimentation is generally defined as a process in which gravity causes heavier objects in a suspension to settle to the lowest part of the system. As used herein, sedimentation refers to the process in which gravity causes cells to settle through a standing column of culture media that fills the channels in the manifold. Forces greater than gravity should be avoided to prevent damage of the cells.
The manifold, substrate, and cells are transferred to a controlled temperature and atmosphere tissue culture incubator for several hours to overnight to allow the cells to attach to the surface of the substrate. Appropriate conditions for the incubator are about 37° C., about […] (CO2), and humidified air. The cells sediment onto a defined location at the bottom of the channel. Therefore, when the manifold is removed from the substrate, the cells are deposited as discs 26 of cells at predetermined locations on the substrate, as shown in FIG. 3. Such sedimentation of cells may further include any other steps of the methods as described by Berens. After the cells are attached and the manifold has been removed, the cells in each well may be re-fed with an appropriate solution.
as §2

[5] = system: melanoma cancer cell line WM1791C; assay: Cell migration rate dose response, melanoma cancer cells; format: cell-based; settings: concentration of 0.025 μM
Experimental: as §1, §2

[6] = system: HUVEC cells; assay: Angiogenesis inhibition: cell migration of HUVEC cells; format: cell-based, Human; settings: compared with untreated control sample
Experimental: as §3
The cells are harvested from a culture according to any method known in the art. The cell concentration is adjusted to about 2000 cells/μl. An appropriate cell concentration may vary depending on the cell type. The cells are deposited into each channel in a volume of about 1 μl. The number of cells deposited onto the substrate varies depending upon the physical characteristics of the cells under study. For example, about 500 to about 3000 cells are deposited in each location. The manifold, substrate, and cells should stand undisturbed for a period of time of, for example, about 30 minutes. […]
as §2

[7] = system: glioma cancer cell line SF 767; assay: Cell migration rate dose response, glioma cancer cells; format: cell-based; settings: concentration of 2.00 μM
Experimental: as §1, §2

[8] = system: pancreatic cancer cell line MiaPaCa-2; assay: Cell migration inhibition of pancreatic cancer cells; format: cell-based; settings: compared with untreated control sample
Experimental: as §1, §2

| SMILES | cell migration rate of normal fibroblasts [4] | cell migration rate [6] | other results |
| --- | --- | --- | --- |
| CC(=O)O[C@H]1C(=O)[C@@]2(C)[C@H]([C@H](OC(=O)c3ccccc3)[C@]3(O)C[C@H](OC(=O)[C@H](O)[C@@H](NC(=O)c4ccccc4)c4ccccc4)C(C)=C1C3(C)C)[C@]1(OC(C)=O)CO[C@@H]1C[C@@H]2O [Taxol, paclitaxel, reference compound] | – | – | % Survival after 100 days ([1]; Taxol alone (10 mg/kg, IP qod×5)): 0% |
| Cc1ccc(C(=O)O)cc1[N+](=O)[O-] [4-methyl-3-nitro-benzoic acid] | essentially no effect | – | cell migration rate [2]: markedly reduced migration; cell migration rate [3]: about 75 μm/day; % Survival after 100 days ([1]; 4-methyl-3-nitro-benzoic acid alone (30 mg/kg, IP qod×5)): 0%; cell migration rate [5]: less than 50 μM/day |
| N#Cc1c(NC(=O)c2cccc(I)c2)sc2c1CCCC2 [compound 301, N-(3-cyano-4,5,6,7-tetrahydro-benzo[b]thiophen-2-yl)-3-iodo-benzamide] | essentially no effect | markedly reduced migration | – |
| CCCC1CCC(C2CCC(C(=O)O)CC2)CC1 (stereo not drawn) [4′-propyl-bicyclohexyl-4-carboxylic acid] | essentially no effect | – | cell migration rate [7]: about 50 μm/day |
| COc1ccc(C2C(C(=O)c3ccc(Cl)cc3)N3c4ccccc4C=CC3C2(C#N)C#N)cc1OC (stereo not drawn) [NS20494, 1-(4-chloro-benzoyl)-2-(3,4-dimethoxy-phenyl)-1,2-dihydro-3aH-pyrrolo[1,2-a]quinoline-3,3-dicarbonitrile] | essentially no effect | markedly reduced migration | cell migration rate [8]: markedly reduced migration |
| C1=C(c2ccc3c(c2)OCCO3)NN=C(Nc2ccccc2)S1 [compound 302, [5-(2,3-dihydro-benzo[1,4]dioxin-6-yl)-4H-[1,3,4]thiadiazin-2-yl]-phenyl-amine] | essentially no effect | markedly reduced migration | – |
